# Patent US6417212B1, “Modulators of peroxisome proliferator activated receptors” (Eli Lilly & Company, priority 1999, dated 2002)
# Target: T1, huPPARγ (Homo sapiens, UniProt P37231)
# T1 sequence (P37231 1-505): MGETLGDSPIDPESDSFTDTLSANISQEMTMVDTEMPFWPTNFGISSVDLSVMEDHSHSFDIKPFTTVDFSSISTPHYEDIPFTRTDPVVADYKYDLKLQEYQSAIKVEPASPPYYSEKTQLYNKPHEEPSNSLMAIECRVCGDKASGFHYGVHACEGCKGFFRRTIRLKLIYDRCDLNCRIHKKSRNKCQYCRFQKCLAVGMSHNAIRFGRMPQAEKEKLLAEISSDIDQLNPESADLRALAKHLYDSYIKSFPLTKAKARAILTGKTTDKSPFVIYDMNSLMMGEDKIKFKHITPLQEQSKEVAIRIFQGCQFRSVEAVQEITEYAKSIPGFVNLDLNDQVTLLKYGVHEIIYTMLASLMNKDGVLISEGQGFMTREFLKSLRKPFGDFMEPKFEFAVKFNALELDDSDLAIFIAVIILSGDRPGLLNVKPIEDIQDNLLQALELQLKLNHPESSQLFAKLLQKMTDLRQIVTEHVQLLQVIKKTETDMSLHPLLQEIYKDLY
# T1 sequence (P19793 1-462 partner): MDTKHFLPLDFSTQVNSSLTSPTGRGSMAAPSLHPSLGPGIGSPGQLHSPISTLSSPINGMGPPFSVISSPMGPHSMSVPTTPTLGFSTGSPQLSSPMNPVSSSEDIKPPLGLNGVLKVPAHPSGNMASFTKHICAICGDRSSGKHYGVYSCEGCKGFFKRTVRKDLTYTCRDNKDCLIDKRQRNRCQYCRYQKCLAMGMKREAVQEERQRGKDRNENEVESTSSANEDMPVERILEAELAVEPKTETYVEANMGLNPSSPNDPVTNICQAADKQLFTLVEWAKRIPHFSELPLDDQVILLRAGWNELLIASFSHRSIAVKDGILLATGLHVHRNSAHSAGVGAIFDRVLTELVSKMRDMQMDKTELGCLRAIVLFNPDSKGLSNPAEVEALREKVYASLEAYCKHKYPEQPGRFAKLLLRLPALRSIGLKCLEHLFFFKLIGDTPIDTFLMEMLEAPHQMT
# Assay: Cotransfection assay in CV-1 cells, huPPARγ
# Format: cell-based
# Design: expressed in transfected cells; host or cells: CV-1 cells
# Details: AOX PPRE luciferase reporter, relative to agonist reference molecule, read-out: huPPARγ CTF Efficacy
# Description: DNA-dependent binding (ABCD binding) was carried out using SPA technology with PPAR receptors. […] Cotransfection assays were carried out in CV-1 cells. The reporter plasmid contained an acylCoA oxidase (AOX) PPRE and TK promoter upstream of the luciferase reporter cDNA. Appropriate PPARs and RXRα were constitutively expressed using plasmids containing the CMV promoter. […] In order to eliminate such interference, a GAL4 chimeric system was used in which the DNA binding domain of the transfected PPAR was replaced by that of GAL4, and the GAL4 response element was utilized in place of the AOX PPRE. […] Efficacies were determined by computer fit to a concentration-response curve, or in some cases at a single high concentration of agonist (10 μM). For binding or cotransfection studies with receptors other than PPARs, similar assays were carried out using appropriate ligands, receptors, reporter constructs, etc., for that particular receptor.
# These studies were carried out to evaluate the ability of compounds of the invention to bind to and/or activate various nuclear transcription factors, particularly huPPARα (“hu” indicates “human”) and huPPARγ. These studies provide in vitro data concerning efficacy and selectivity of compounds of the invention. Furthermore, binding and cotransfection data for compounds of the invention were compared with corresponding data for marketed compounds that act on either huPPARα or huPPARγ.
row,Emax [%],Compound
1,84,"Cc1oc(-c2ccc(-c3c(F)cccc3F)cc2)nc1CCOc1ccc(OC(C)(C)C(=O)O)cc1 [Example 14, 2-(4-{2-[2-(2′,6′-Difluorobiphenyl-4-yl)-5-methyloxazol-4-yl]-ethoxy}-phenoxy)-2-methylpropionic acid]"
2,70,"Cc1oc(-c2ccc(-c3ccccc3)cc2)nc1CCOc1cccc(OC(C)(C)C(=O)O)c1 [Example 21, 2-{3-[2-(2-Biphenyl-4-yl-5-methyloxazol-4-yl)ethoxy]phenoxy}-2-methylpropionic acid]"
3,142,"Cc1sc(-c2cccc(-c3ccccc3)c2)nc1CCOc1ccc(OC(C)(C)C(=O)O)cc1 [Example 46, 2-{4-[2-(2-Biphenyl-3-yl-5-methyl-thiazol-4-yl)-ethoxy]-phenoxy}-2-methyl-propionic acid]"
